How the values were obtained:
[1] = Metabolic stability of liver microsomes, mouse; format: in vitro ADME; conditions: NADPH, 0-45 min, read-out: CLint(μL/min/mg protein) Mouse
Experimental: (§1) The liver microsomes of human, rat, mouse and dog were used to study the metabolic stability of the compounds. The specific experimental steps are as follows: • (1) Add 40 μL MgCl2 and 306 μL PBS to each well of a 96-well plate, and then add 4 μL compound, with a final DMSO concentration of ≤0.5%. Set up a blank well without compound; • (2) Add 10 μL of 20 mg/mL liver microsomes to each well, incubate at 37° C. for 10 min; • (3) Add 40 μL NADPH working solution to each well to start the reaction, and set up a control well without NADPH; • (4) At 0, 5, 15, and 45 min after the start of the reaction, 50 μL of sample was taken out, the termination solution was added, and the mixture was shaken for 5 min. • (5) The samples were then centrifuged at 3,220 g for 10 min, and 50 μL of the supernatant was removed and was added 200 μL water for dilution and analysis by LC-MS/MS.
(§2) The in vitro intrinsic clearance (in vitro CLint, in μL/min/mg) was calculated from the in vitro half-life t1/2 (minutes) using the following equation (mean of replicates):
(§3) In vitro clearance rate=0.693/in vitro half-life t1/2×[incubation volume (μL)/(protein amount (mg)]

[2] = tested on: A431 cell carrying EGFR WT; experiment: Cell proliferation inhibitory activity assay, A431; format: cell-based; conditions: Homo sapiens, A-431; cell proliferation inhibition, 72 hours, luminescence
Experimental: (§4) Suspension cells Ba/F3 (EGFR. Dell9/T790M/C797S), Ba/F3 (EGFR L858R/T790M/C797S), Ba/F3 (EGFR Del19/C797S), and Ba/F3 (EGFR L858R/C797S) overexpressing different EGFR mutations were cultured in PRMI 1640 containing 10% FBS and 1% PS, and adherent cells A431 carrying EGFR WT were cultured in DMEM containing 10% FBS and 1% PS. The experimental steps for compound activity detection are as follows: • (1) Take adherent cells in the logarithmic growth phase, digest them with trypsin count them, and then inoculate them into a 96-well plate at a certain density. Incubate them overnight at 37° C. and 5% CO2 to allow them to adhere.
(§5) Y=minimum+([…])/(1+10^((Log IC50−X)*slope)); • X: logarithm of compound concentration; Y: cell survival inhibition rate.

[3] = Metabolic stability of liver microsomes, rat; format: in vitro ADME; conditions: NADPH, 0-45 min, read-out: CLint(μL/min/mg protein) Rat
Experimental: as §1, §2, §3

[4] = biological target: Ba/F3 cells overexpressing EGFR Del19/T790M/C797S (Homo sapiens, UniProt P00533, T790M/C797S, cells depend on it, form not given); experiment: Cell proliferation inhibitory activity assay, Ba/F3 EGFR Del19/T790M/C797S; format: cell-based; conditions: cell proliferation inhibition, 72 hours, luminescence; read-out: Ba/F3 cells overexpressing different EGFR mutations IC50 (nM) Del19/T790M/C797S
Experimental: as §4, §5

[5] = biological target: Ba/F3 (EGFR L858R/T790M/C797S) (Homo sapiens, UniProt P00533, T790M/C797S/L858R, cells depend on it); experiment: Cell proliferation inhibitory activity assay, Ba/F3 EGFR L858R/T790M/C797S; format: cell-based; conditions: cell proliferation inhibition, 72 hours, luminescence; read-out: Ba/F3 cells overexpressing different EGFR mutations IC50 (nM) L858R/T790M/C797S
Experimental: as §4, §5

Ba/F3 (EGFR Del19/C797S) = Ba/F3 (EGFR Del19/C797S) (Homo sapiens, UniProt P00533, C797S, cells depend on it, form not given); experiment: Cell proliferation inhibitory activity assay, Ba/F3 EGFR Del19/C797S; format: cell-based; conditions: cell proliferation inhibition, 72 hours, luminescence; read-out: Ba/F3 cells overexpressing different EGFR mutations IC50 (nM) Del19/C797S
Experimental: as §4, §5

[6] = Metabolic stability of liver microsomes, dog; format: in vitro ADME; conditions: NADPH, 0-45 min, read-out: CLint(μL/min/mg protein) Dog
Experimental: as §1, §2, §3

[7] = Metabolic stability of liver microsomes, human; format: in vitro ADME; conditions: NADPH, 0-45 min, read-out: CLint(μL/min/mg protein) Human
Experimental: as §1, §2, §3

Ba/F3 (EGFR L858R/C797S) = Ba/F3 (EGFR L858R/C797S) (Homo sapiens, UniProt P00533, C797S/L858R, cells depend on it); experiment: Cell proliferation inhibitory activity assay, Ba/F3 EGFR L858R/C797S; format: cell-based; conditions: cell proliferation inhibition, 72 hours, luminescence; read-out: Ba/F3 cells overexpressing different EGFR mutations IC50 (nM) L858R/C797S
Experimental: as §4, §5

Pharmacokinetics in mice = format: in vivo, mouse; conditions: mouse, po, female BALB/c mice, 5 mg/kg orally by gavage, plasma; for Cmax: read-out: Cmax
Experimental: Mouse PK studies were performed using female BALB/c mice (20-30 g). Compounds were prepared and prepared immediately before use. Mice were administered intravenously or orally by gavage. Blood was collected from the mouse orbital venous plexus, and 100 μL of whole blood was transferred to a K2-EDTA tube at each time point.
1 mg/kg was given intravenously, and whole blood was collected at 0.083, 0.25, 0.5, 1, 2, 4, 6 and 24 h after administration; 5 mg/kg were given orally by gavage, and whole blood was collected at 0.25, 0.5, 1, 2, 4, 6, 24 h after administration in different batches, or the mice were killed at 2, 4 and 6 h to obtain brains. Whole blood samples were centrifuged and plasma was separated; brain tissue samples were homogenized by adding 4 times the volume of buffer, and the plasma and brain tissue samples were stored in a −80° C. refrigerator for later use. After the above plasma and brain tissue samples were precipitated with acetonitrile for protein, the supernatant was taken and mixed with water in a 1:1 ratio, and 10 μL was taken for LC-MS/MS detection.

Pharmacokinetics in rats = format: in vivo, rat; conditions: rat, po, male SD rats, 5 mg/kg orally by gavage, plasma; for Cmax: read-out: Cmax
Experimental: Male SD rats (200-300 g) were used for rat PK studies. Compounds were prepared and prepared immediately before use. Rats were administered intravenously or orally by gavage. Blood was collected from the rats through the orbital venous plexus, and 100 μL whole blood was collected into K2-EDTA tubes at each time point.
1 mg/kg was given intravenously, and whole blood was collected at 0.083, 0,25, $0.5, 1, 2, 4, 7, 24, 48, and 72 h after administration; 5 mg/kg were given orally by gavage, and whole blood was collected at 0.25, 0.5, 1, 2, 4, 7, 24, 48, and 72 h after administration in different batches, or the rats were killed at 4 and 24 h to obtain brains. The brain tissue samples were homogenized by adding 4 times the volume of buffer, and the whole blood and brain tissue samples were stored in a −80° C. refrigerator for later use. After the above whole blood and brain tissue samples were precipitated with acetonitrile for protein, the supernatant was taken and mixed with water in a ratio of 1:2, and 10 μL was taken for LC-MS/MS detection.

Chain of Ba/F3 (EGFR L858R/C797S) (P00533 whole entry C797S/L858R): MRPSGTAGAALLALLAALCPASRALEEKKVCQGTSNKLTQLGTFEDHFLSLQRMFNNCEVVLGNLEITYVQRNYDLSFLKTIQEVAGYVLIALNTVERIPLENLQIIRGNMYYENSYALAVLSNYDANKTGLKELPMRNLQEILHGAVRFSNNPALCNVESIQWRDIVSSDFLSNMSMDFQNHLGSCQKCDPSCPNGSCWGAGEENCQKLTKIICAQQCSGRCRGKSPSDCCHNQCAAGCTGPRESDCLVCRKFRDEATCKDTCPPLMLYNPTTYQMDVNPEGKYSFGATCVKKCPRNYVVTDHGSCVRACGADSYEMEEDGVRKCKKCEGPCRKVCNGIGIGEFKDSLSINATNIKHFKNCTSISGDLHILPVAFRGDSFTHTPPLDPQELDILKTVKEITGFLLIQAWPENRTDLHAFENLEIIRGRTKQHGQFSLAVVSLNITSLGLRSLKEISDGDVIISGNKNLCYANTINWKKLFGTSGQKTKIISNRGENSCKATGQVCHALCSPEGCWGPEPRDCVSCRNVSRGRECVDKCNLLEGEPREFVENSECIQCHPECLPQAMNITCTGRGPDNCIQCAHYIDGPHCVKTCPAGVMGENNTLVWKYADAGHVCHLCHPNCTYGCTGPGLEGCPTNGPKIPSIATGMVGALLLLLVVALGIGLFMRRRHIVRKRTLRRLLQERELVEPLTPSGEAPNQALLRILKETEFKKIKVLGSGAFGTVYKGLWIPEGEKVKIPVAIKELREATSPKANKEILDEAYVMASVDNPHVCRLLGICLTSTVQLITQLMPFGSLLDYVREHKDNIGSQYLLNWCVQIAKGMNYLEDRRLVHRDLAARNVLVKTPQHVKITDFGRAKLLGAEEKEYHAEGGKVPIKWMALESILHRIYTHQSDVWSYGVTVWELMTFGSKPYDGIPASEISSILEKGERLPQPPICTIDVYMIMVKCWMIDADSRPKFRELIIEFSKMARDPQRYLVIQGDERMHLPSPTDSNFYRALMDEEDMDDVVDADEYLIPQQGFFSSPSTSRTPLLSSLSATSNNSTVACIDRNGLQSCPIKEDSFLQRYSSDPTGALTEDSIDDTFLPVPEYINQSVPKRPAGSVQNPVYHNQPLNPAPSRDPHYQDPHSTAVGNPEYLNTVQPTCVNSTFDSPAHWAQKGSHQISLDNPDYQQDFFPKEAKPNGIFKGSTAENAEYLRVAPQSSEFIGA
Chain of Ba/F3 cells overexpressing EGFR Del19/T790M/C797S (P00533 with tags, fused parts or gaps DEL746-750/T790M/C797S, form open): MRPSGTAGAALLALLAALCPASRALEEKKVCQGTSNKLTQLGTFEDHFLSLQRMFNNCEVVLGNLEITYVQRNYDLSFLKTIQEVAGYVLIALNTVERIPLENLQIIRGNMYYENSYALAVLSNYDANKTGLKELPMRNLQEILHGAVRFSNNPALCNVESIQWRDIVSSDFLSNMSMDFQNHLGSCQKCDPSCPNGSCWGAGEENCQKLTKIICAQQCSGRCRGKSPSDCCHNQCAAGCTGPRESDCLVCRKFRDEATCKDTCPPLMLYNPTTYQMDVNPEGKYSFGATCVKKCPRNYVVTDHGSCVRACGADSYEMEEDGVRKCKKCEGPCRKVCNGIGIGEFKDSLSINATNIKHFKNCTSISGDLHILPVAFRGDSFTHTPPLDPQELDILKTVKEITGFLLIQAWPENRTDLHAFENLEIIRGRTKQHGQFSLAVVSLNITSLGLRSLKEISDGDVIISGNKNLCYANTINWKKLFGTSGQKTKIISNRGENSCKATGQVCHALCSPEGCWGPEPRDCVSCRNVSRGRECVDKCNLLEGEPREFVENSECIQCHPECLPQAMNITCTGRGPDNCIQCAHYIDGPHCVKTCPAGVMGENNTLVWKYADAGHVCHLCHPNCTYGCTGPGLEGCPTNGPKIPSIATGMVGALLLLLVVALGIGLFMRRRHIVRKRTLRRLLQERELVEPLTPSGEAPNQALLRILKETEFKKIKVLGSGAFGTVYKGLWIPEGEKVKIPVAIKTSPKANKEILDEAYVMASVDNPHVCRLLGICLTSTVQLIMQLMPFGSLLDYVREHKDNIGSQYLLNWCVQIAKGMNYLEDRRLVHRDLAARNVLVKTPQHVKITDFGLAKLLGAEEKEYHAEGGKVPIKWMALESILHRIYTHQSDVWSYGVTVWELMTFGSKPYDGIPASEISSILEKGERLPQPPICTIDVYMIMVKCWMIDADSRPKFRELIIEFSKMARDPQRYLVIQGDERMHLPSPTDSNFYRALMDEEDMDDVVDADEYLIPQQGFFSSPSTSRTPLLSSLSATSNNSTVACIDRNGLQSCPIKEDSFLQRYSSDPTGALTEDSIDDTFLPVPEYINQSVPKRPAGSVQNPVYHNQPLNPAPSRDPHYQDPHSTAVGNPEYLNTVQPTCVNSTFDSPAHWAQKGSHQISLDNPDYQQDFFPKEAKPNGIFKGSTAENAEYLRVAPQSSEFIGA
Chain of Ba/F3 (EGFR Del19/C797S) (P00533 with tags, fused parts or gaps DEL746-750/C797S, form open): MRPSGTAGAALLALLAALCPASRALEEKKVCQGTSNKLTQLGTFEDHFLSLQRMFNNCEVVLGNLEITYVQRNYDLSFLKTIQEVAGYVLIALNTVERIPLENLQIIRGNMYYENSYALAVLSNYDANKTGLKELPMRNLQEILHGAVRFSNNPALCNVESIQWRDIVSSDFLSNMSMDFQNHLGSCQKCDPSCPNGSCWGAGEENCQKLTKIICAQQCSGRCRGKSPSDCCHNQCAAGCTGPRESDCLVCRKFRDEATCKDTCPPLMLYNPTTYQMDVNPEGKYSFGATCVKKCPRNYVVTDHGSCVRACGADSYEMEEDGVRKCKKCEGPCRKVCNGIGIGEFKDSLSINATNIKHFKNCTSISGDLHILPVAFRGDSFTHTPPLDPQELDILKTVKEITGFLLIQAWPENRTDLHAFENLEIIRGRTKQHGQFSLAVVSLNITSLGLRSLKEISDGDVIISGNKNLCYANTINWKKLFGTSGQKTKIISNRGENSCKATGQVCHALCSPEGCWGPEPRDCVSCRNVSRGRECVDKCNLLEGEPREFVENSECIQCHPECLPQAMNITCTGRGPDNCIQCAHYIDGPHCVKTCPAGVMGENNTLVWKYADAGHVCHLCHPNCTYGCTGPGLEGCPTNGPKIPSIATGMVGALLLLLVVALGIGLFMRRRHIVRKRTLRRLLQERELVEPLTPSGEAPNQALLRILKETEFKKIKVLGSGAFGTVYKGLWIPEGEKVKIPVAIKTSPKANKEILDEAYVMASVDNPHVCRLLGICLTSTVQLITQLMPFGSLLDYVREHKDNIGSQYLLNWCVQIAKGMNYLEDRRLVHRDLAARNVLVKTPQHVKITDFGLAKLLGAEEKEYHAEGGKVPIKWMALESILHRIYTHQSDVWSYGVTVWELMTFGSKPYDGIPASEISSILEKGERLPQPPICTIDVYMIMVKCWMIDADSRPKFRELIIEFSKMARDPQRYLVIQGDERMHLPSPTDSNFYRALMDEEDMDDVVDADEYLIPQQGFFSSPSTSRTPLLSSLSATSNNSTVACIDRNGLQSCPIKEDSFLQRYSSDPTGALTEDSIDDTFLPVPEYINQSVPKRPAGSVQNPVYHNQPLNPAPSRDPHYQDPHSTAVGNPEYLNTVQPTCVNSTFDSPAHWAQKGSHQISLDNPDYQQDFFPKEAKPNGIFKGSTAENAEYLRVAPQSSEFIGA
Chain of Ba/F3 (EGFR L858R/T790M/C797S) (P00533 whole entry T790M/C797S/L858R): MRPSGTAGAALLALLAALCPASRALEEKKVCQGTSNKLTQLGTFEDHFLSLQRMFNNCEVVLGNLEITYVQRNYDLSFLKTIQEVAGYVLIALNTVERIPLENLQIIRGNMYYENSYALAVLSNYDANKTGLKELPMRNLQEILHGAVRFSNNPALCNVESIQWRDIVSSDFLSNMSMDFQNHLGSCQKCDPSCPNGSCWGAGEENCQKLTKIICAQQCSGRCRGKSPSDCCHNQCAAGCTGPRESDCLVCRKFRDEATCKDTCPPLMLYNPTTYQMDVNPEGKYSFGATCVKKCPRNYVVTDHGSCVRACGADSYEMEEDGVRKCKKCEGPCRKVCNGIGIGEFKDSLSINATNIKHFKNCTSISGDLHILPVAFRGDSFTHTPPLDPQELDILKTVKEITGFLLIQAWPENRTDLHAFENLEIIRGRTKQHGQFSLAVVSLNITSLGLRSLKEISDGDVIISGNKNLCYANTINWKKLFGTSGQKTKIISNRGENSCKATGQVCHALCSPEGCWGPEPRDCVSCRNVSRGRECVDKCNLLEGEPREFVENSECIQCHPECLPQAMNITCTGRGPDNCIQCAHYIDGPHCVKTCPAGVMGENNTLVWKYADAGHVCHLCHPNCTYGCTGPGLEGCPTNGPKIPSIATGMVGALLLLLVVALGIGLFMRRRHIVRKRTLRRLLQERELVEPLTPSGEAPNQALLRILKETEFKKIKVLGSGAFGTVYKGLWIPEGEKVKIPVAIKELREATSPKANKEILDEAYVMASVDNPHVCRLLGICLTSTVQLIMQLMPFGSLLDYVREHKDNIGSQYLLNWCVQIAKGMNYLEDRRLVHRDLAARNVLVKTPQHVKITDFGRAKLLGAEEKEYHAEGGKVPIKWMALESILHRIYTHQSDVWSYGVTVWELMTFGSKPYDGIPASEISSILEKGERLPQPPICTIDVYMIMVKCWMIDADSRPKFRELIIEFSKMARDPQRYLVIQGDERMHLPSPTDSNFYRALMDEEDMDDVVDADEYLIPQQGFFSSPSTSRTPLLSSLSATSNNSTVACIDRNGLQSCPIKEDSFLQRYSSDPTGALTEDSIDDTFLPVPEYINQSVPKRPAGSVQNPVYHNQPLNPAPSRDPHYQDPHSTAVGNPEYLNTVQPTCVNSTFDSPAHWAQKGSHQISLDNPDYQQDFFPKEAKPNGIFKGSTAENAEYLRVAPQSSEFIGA

| microsomal CLint [1] | IC50 [2] | microsomal CLint [3] | GI50 [4] | GI50 [5] | GI50 (Ba/F3 (EGFR Del19/C797S)) | microsomal CLint [6] | microsomal CLint [7] | GI50 (Ba/F3 (EGFR L858R/C797S)) | AUC(0-t) (Pharmacokinetics in mice) | half-life (Pharmacokinetics in mice) | Cmax (Pharmacokinetics in mice) | AUC(0-t) (Pharmacokinetics in rats) | half-life (Pharmacokinetics in rats) | Cmax (Pharmacokinetics in rats) | Structure (SMILES) |
| --- | --- | --- | --- | --- | --- | --- | --- | --- | --- | --- | --- | --- | --- | --- | --- |
| – | 274 nM | 5.6 µL/min/mg | 0.2 nM | 1.1 nM | 0.2 nM | 24 µL/min/mg | 26.3 µL/min/mg | 0.8 nM | 2.09 µg·h/mL | 5.28 h | 0.181 µg/mL | 2.59 µg·h/mL | 27.5 h | 0.165 µg/mL | Cc1cc2cc(n1)-c1cnccc1OCCC[C@@H](C)Cn1c(nc3ccc(N4CCC5(CC4)CCN(C4COC4)CC5)cc31)NC2=O [Example 4] |
| 22.8 µL/min/mg | 331 nM | 8.9 µL/min/mg | 0.61 nM | 0.98 nM | 0.19 nM | 2.2 µL/min/mg | 9.1 µL/min/mg | 0.88 nM | – | – | – | – | – | – | Cc1cc2cc(n1)-c1cnccc1OCCC[C@@H](C)Cn1c(nc3cc(F)c(N4CCC5(CCN(C)CC5)CC4)cc31)NC2=O [Example 5, (R)-5^5-fluoro-2^6,7-dimethyl-5^6-(9-methyl-3,9-diazaspiro[5.5]undecan-3-yl)-5^1H-11-oxa-4-aza-5(2,1)-benzo[d]imidazola-1(3,4),2(2,4)-dipyridinacycloundecaphan-3-one] |
| – | 403 nM | 2.9 µL/min/mg | 2.1 nM | 4.1 nM | 0.38 nM | 20.6 µL/min/mg | 41.5 µL/min/mg | 2.1 nM | 1.14 µg·h/mL | 21.5 h | 0.0924 µg/mL | 1.7 µg·h/mL | 17.2 h | 0.106 µg/mL | Cc1cc2cc(n1)-c1cnccc1OCCC[C@@H](C)Cn1c(nc3cc(F)c(N4CCC5(CC4)CCN(C4COC4)CC5)cc31)NC2=O [Example 6, (R)-5^5-fluoro-2^6,7-dimethyl-5^6-(9-(oxetan-3-yl)-3,9-diazaspiro[5.5]undecan-3-yl)-5^1H-11-oxa-4-aza-3(2.1)-benzo[d]imidazola-1(3,4),2(2,4)-dipyridinacycloundecaphan-3-one] |
| 5.5 µL/min/mg | 1000 nM | – | 4.9 nM | 7.6 nM | 0.48 nM | 10.4 µL/min/mg | 24.9 µL/min/mg | 4.4 nM | – | – | – | – | – | – | Cc1cc2cc(n1)-c1cnccc1OCCC[C@@H](C)Cn1c(nc3cc(C)c(N4CCC5(CC4)CCN(C4COC4)CC5)cc31)NC2=O [Example 12, (R)-2^6,5^5,7-trimethyl-5^6-(9-(oxetan-3-yl)-3,9-diazaspiro[5.5]undecan-3-yl)-5^1H-11-oxa-4-aza-5(2,1)-benzo[d]imidazola-1(3,4),2(2,4) -dipyridinacycloundecaphan-3-on] |

Second part, the molecule before the results:

| Structure (SMILES) | microsomal CLint [1] | IC50 [2] | microsomal CLint [3] | GI50 [4] | GI50 [5] | GI50 (Ba/F3 (EGFR Del19/C797S)) | microsomal CLint [6] | microsomal CLint [7] | GI50 (Ba/F3 (EGFR L858R/C797S)) | AUC(0-t) (Pharmacokinetics in mice) | half-life (Pharmacokinetics in mice) | Cmax (Pharmacokinetics in mice) | AUC(0-t) (Pharmacokinetics in rats) | half-life (Pharmacokinetics in rats) | Cmax (Pharmacokinetics in rats) |
| --- | --- | --- | --- | --- | --- | --- | --- | --- | --- | --- | --- | --- | --- | --- | --- |
| Cc1cc2cc(n1)-c1cnccc1OCCCCCn1c(nc3ccc(N4CCC5(CCN(C)CC5)CC4)cc31)NC2=O [Example 1, 2^6-methyl-5^6-(9-methyl-3,9-diazaspiro[5.5]undecan-3-yl)-5^1H-11-oxa-4-aza-5(2,1)-benzo[d]imidazola-1(3,4),2(2,4)-dipyridinacycloundecaphan-3-one] | 32.7 µL/min/mg | 1640 nM | 14.2 µL/min/mg | 0.24 nM | 0.62 nM | 0.08 nM | 8.9 µL/min/mg | 7.2 µL/min/mg | 0.23 nM | – | – | – | – | – | – |
| Cc1cc2cc(n1)-c1cnccc1OCCC[C@@H](C)Cn1c(nc3ccc(N4CCC5(CCN(C)CC5)CC4)cc31)NC2=O [Example 3, (R)-2^6,7-dimethyl-5^6-(9-methyl-3,9-diazaspiro[5.5]undecan-3-yl)-5^1H-11-oxa-4-aza-5(2,1)-benzo[d]imidazola-1(3,4)2(2,4)-dipyridinacycloundecaphan-3-one] | 23.1 µL/min/mg | 759 nM | 8 µL/min/mg | 0.49 nM | 0.71 nM | 0.07 nM | 7.9 µL/min/mg | 6.6 µL/min/mg | 0.44 nM | – | – | – | – | – | – |
| Cc1cc2cc(n1)-c1cnccc1OCCCCCn1c(nc3cc(C)c(N4CCC5(CCN(C)CC5)CC4)cc31)NC2=O [Example 13, 2^6,5^5-dimethyl-5^6-(9-methyl-3,9-diazaspiro[5.5]undecan-3-yl)-5^1H-11-oxa-4-aza-5(2,1)-benzo[d]imidazola-1(3,4),2(2,4)-dipyridinacycloundecaphan-3-one] | 6.2 µL/min/mg | > 3330 nM | 7 µL/min/mg | 0.96 nM | 2 nM | 0.2 nM | 4.2 µL/min/mg | 4 µL/min/mg | 1.3 nM | – | – | – | – | – | – |
| Cc1cc2cc(n1)-c1cnccc1OCCCCCn1c(nc3ccc(N4CCC5(CCN(CC(C)(C)F)CC5)CC4)cc31)NC2=O [Example 78, 5^6-(9-(2-fluoro-2-methylpropyl)-3,9-diazaspiro [5.5]undecan-3-yl)-2^6-methyl-5^1H-11-oxa-4-aza-5(2,1)-benzo[d] imidazola-1(3,4),2(2,4)-dipyridinacyclo-undecaphan-3-one] | 69.5 µL/min/mg | > 3330 nM | 12.2 µL/min/mg | 5.9 nM | 12 nM | 3.3 nM | 22 µL/min/mg | 4.3 µL/min/mg | 21 nM | – | – | – | – | – | – |
